Source: ChEMBL document CHEMBL5723587, “Data for DCP probe BI-113823” (2024)
Activity calls are given as the source filed them. No cut-off for these calls is given here.

How the values were obtained:
[1] = biological target: B1 bradykinin receptor (Homo sapiens) (UniProt P46663); test: Activity against B1/H in the Eurofins SafetyScreen44 (BI) by Radioactive Assay; settings: Compound concentration 10.0 uM
[2] = biological target: Alpha-1D adrenergic receptor (Homo sapiens) (UniProt P25100); test: Activity against ALPHA1D/H in the Eurofins SafetyScreen44 (BI) by Others; settings: Compound concentration 10.0 uM
Sequence of Alpha-1D adrenergic receptor (Homo sapiens) (P25100 whole entry): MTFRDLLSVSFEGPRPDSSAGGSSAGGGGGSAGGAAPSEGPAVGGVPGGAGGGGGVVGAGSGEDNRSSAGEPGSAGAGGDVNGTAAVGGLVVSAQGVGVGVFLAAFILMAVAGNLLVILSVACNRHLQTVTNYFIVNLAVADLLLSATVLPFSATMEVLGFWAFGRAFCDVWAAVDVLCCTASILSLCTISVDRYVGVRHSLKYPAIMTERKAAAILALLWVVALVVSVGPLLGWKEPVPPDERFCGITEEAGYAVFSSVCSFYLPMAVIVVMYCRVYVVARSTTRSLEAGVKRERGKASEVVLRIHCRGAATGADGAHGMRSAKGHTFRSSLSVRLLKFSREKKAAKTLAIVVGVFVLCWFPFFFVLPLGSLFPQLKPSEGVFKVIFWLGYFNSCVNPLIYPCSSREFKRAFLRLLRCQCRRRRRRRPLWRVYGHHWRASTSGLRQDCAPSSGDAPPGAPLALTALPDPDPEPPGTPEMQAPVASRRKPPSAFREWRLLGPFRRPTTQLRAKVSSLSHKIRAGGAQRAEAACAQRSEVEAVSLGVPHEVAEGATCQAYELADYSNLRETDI

[3] = biological target: Voltage-dependent N-type calcium channel subunit alpha-1B (Rattus norvegicus) (UniProt Q02294); test: Activity against CA+/N/RA in the Eurofins SafetyScreen44 (BI) by Radioactive Assay; settings: Compound concentration 10.0 uM
[4] = biological target: Adenosine receptor A3 (Homo sapiens) (UniProt P0DMS8); test: Activity against A3/H in the Eurofins SafetyScreen44 (BI); settings: Compound concentration 10.0 uM
B1 bradykinin receptor [5] = biological target: B1 bradykinin receptor (Oryctolagus cuniculus, UniProt P48748); test: Radioligand binding assay (displacement of kallidin, rabbit BDKRB1 ) at 10 µM ( Non-specific binding is estimated in the presence of 10 µM Des-Arg9- (Leu8)-Bradykinin. Membranes are filtered and washed, the filters are then counted to determine [3H]Kallidin[des-Arg10, Leu9] specifically bound.); design: compound concentration 10 uM
Sequence of B1 bradykinin receptor (Oryctolagus cuniculus, UniProt P48748) (P48748 whole entry): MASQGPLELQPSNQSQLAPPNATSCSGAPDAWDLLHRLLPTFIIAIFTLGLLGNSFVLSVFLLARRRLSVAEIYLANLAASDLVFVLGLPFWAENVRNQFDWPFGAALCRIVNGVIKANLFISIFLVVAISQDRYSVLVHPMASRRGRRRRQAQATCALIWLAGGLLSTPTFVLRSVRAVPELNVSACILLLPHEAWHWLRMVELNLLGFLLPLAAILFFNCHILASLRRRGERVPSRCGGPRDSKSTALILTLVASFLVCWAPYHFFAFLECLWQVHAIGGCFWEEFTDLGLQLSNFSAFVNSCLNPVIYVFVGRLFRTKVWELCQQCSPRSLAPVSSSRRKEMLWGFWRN

Rattus norvegicus = species on record: Rattus norvegicus; test: Activity against CA+/DHPSI/RA in the Eurofins SafetyScreen44 (BI) by Radioactive Assay; settings: Compound concentration 10.0 uM
hERG (KCNH2) = hERG (KCNH2) (Homo sapiens, UniProt Q12809); test: Activity against K+/HERG in the Eurofins SafetyScreen44 (BI) by Radioactive Assay; settings: compound concentration 10 uM, read-out: % Ctrl
[6] = biological target: 3',5'-cyclic-AMP phosphodiesterase 4A (Rattus norvegicus) (UniProt P54748); test: Activity against ROLIPRAM/R in the Eurofins SafetyScreen44 (BI) by Radioligand Binding; settings: Compound concentration 10.0 uM
[7] = biological target: D(2) dopamine receptor (Homo sapiens) (UniProt P14416); test: Activity against D2S/HU in the Eurofins SafetyScreen44 (BI) by Radioligand Binding; settings: Compound concentration 10.0 uM
Sequence of D(2) dopamine receptor (Homo sapiens) (P14416 whole entry): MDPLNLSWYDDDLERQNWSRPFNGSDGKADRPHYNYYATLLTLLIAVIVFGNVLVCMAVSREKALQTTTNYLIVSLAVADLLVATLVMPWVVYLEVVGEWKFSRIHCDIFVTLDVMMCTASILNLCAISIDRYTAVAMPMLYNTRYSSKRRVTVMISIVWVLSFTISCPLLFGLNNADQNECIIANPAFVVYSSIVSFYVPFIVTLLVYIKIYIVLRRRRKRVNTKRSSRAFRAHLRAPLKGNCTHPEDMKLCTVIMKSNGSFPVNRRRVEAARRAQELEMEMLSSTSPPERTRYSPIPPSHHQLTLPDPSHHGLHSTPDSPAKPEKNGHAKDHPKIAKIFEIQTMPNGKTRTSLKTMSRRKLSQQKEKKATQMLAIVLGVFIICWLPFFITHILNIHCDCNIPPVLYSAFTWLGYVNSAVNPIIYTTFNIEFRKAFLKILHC

[8] = biological target: Neuropeptide Y receptor type 2 (Homo sapiens) (UniProt P49146); test: Activity against Y2/HU in the Eurofins SafetyScreen44 (BI) by Radioactive Assay; settings: Compound concentration 10.0 uM
B1 bradykinin receptor [9] = biological target: B1 bradykinin receptor (Rattus norvegicus, UniProt P97583); test: Radioligand binding assay (displacement of kallidin, rat BDKRB1 ) at 10 µM ( Non-specific binding is estimated in the presence of 10 µM Des-Arg9- (Leu8)-Bradykinin. Membranes are filtered and washed, the filters are then counted to determine [3H]Kallidin[des-Arg10, Leu9] specifically bound.); design: compound concentration 10 uM
[10] = biological target: Sigma non-opioid intracellular receptor 1 (Homo sapiens) (UniProt Q99720); test: Activity against SIGMA1/HU in the Eurofins SafetyScreen44 (BI) by Radioactive Assay; settings: Compound concentration 10.0 uM
Sequence of Sigma non-opioid intracellular receptor 1 (Homo sapiens) (Q99720 whole entry): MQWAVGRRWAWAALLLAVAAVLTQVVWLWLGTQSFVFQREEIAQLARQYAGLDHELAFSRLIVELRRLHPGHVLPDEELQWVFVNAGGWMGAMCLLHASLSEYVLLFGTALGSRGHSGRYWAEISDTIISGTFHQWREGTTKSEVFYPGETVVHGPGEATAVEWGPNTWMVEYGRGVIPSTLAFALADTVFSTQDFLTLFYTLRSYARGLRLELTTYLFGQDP

[11] = biological target: Glucocorticoid receptor (Homo sapiens) (UniProt P04150); test: Activity against GLUCOCORTICO in the Eurofins SafetyScreen44 (BI) by Radioactive Assay; settings: Compound concentration 10.0 uM
B1 bradykinin receptor [12] = biological target: T1, B1 bradykinin receptor (Homo sapiens, UniProt P46663); test: Radioligand binding assay (displacement of kallidin, hBDKRB1 ) at 10 µM ( Non-specific binding is estimated in the presence of 10 µM Des-Arg9- (Leu8)-Bradykinin. Membranes are filtered and washed, the filters are then counted to determine [3H]Kallidin[des-Arg10, Leu9] specifically bound.); design: compound concentration 10 uM
T1 sequence (P46663 whole entry): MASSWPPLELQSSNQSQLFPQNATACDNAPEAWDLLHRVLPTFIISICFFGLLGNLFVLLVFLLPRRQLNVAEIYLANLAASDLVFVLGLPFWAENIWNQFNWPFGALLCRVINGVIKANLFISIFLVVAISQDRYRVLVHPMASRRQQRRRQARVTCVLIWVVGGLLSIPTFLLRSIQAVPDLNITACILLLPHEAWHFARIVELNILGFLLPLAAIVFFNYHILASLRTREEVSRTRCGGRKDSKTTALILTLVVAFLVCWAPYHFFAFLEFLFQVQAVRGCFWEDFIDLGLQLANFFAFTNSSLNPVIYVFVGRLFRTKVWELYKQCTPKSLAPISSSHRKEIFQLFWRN

[13] = biological target: Beta-1 adrenergic receptor (Homo sapiens) (UniProt P08588); test: Activity against BETA1/HU in the Eurofins SafetyScreen44 (BI) by Radioactive Assay; settings: Compound concentration 10.0 uM
Sequence of Beta-1 adrenergic receptor (Homo sapiens) (P08588 whole entry, looked up): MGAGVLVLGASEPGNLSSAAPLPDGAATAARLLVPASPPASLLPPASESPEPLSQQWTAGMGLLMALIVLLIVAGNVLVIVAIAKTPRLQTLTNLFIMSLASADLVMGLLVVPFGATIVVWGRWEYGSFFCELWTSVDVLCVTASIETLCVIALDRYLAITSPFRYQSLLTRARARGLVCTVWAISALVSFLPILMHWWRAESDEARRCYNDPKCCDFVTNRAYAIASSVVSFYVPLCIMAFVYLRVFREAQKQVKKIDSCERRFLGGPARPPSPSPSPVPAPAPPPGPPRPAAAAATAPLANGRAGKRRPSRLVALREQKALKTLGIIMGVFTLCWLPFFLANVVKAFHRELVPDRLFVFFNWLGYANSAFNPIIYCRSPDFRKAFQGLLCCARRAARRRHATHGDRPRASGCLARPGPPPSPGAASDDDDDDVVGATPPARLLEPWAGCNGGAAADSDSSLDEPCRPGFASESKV

[14] = biological target: Histamine H1 receptor (Homo sapiens) (UniProt P35367); test: Activity against H1/H in the Eurofins SafetyScreen44 (BI) by Radioactive Assay; settings: Compound concentration 10.0 uM
Sequence of Histamine H1 receptor (Homo sapiens) (P35367 whole entry): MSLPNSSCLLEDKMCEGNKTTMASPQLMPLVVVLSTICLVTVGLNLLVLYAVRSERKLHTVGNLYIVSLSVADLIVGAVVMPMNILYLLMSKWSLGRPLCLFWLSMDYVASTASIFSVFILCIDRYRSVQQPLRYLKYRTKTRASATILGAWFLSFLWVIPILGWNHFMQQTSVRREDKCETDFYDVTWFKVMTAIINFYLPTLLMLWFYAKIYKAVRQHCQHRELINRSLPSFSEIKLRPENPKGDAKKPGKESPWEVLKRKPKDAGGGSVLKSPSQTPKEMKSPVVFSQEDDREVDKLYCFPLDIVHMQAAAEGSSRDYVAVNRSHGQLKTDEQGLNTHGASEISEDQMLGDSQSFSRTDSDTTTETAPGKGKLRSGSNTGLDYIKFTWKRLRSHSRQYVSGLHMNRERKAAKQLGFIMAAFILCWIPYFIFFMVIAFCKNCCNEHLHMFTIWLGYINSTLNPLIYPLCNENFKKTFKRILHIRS

[15] = biological target: Platelet-activating factor receptor (Homo sapiens) (UniProt P25105); test: Activity against PAF/H in the Eurofins SafetyScreen44 (BI) by Radioactive Assay; settings: Compound concentration 10.0 uM
[16] = biological target: Sodium-dependent serotonin transporter (Homo sapiens) (UniProt P31645); test: Activity against 5HTTRANS/HU in the Eurofins SafetyScreen44 (BI) by Radioactive Assay; settings: Compound concentration 10.0 uM
Sequence of Sodium-dependent serotonin transporter (Homo sapiens) (P31645 whole entry, looked up): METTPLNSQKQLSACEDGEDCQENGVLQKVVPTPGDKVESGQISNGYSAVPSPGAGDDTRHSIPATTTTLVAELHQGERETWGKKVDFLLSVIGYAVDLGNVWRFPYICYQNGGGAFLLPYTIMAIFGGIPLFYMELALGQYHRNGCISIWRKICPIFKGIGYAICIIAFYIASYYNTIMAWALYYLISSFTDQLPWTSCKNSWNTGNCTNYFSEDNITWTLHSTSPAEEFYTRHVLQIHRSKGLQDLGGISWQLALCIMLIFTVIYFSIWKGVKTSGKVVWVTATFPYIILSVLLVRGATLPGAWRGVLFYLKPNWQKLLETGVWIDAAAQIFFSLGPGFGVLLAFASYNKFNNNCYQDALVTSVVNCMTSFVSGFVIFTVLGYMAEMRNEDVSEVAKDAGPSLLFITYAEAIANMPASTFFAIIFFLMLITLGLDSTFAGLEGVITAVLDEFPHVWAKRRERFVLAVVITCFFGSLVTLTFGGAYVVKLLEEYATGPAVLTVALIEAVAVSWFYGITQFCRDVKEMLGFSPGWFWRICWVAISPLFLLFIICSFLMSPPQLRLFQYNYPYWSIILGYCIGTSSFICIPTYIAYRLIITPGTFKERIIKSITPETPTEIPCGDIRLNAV

[17] = biological target: Alpha-1A adrenergic receptor (Rattus norvegicus) (UniProt P43140); test: Activity against ALPHA1A/R in the Eurofins SafetyScreen44 (BI) by Others; settings: Compound concentration 10.0 uM
[18] = biological target: Muscarinic acetylcholine receptor M1 (Homo sapiens) (UniProt P11229); test: Activity against M1/HU in the Eurofins SafetyScreen44 (BI) by Radioactive Assay; settings: Compound concentration 10.0 uM
[19] = biological target: Endothelin receptor type B (Homo sapiens) (UniProt P24530); test: Activity against ETB/HUM in the Eurofins SafetyScreen44 (BI) by Radioactive Assay; settings: Compound concentration 10.0 uM
[20] = biological target: Gamma-aminobutyric acid receptor subunit alpha-1 (Rattus norvegicus) (UniProt P62813); test: Activity against GABAA MUSCIMOL CENT in the Eurofins SafetyScreen44 (BI) by Scintillation counting; settings: Compound concentration 10.0 uM
Sequence of Gamma-aminobutyric acid receptor subunit alpha-1 (Rattus norvegicus) (P62813 whole entry): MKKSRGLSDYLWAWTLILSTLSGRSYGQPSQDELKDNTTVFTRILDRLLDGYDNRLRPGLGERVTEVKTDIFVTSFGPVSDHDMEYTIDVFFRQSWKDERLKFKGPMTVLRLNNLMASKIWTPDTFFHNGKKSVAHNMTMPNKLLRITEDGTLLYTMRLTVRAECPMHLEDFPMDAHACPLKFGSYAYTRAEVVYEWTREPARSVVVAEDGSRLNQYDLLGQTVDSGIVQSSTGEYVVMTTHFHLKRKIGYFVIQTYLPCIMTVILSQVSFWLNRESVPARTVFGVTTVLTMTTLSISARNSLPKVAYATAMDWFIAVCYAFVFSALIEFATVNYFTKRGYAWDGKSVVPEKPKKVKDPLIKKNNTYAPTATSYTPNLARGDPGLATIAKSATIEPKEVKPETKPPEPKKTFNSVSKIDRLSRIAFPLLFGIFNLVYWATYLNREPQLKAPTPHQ

[21] = biological target: Protein kinase C alpha type (Mus musculus) (UniProt P20444); test: Inhibitor of PHORBOLE/M in the Eurofins SafetyScreen44 (BI) by Radioactive Assay; settings: Compound concentration 10.0 uM
[22] = biological target: Gamma-aminobutyric acid receptor subunit alpha-1 (Rattus norvegicus) (UniProt P62813); test: Activity against GABAACENTR in the Eurofins SafetyScreen44 (BI) by Radioactive Assay; settings: Compound concentration 10.0 uM
[23] = biological target: Histamine H2 receptor (Homo sapiens) (UniProt P25021); test: Activity against H2/H in the Eurofins SafetyScreen44 (BI) by Radioactive Assay; settings: Compound concentration 10.0 uM
Sequence of Histamine H2 receptor (Homo sapiens) (P25021 whole entry): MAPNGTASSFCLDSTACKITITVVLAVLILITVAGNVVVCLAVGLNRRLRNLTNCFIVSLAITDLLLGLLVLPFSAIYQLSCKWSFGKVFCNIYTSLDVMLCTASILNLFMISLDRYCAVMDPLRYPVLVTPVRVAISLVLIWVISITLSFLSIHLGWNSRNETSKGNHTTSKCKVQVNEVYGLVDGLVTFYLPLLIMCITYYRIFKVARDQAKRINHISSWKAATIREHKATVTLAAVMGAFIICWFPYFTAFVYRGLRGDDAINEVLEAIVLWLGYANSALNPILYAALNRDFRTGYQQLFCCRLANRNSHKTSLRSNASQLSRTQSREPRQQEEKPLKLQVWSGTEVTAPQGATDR

[24] = biological target: Cysteinyl leukotriene receptor 1 (Homo sapiens) (UniProt Q9Y271); test: Activity against CYSLT1_HS in the Eurofins SafetyScreen44 (BI) by Radioactive Assay; settings: Compound concentration 10.0 uM
Sequence of Cysteinyl leukotriene receptor 1 (Homo sapiens) (Q9Y271 whole entry): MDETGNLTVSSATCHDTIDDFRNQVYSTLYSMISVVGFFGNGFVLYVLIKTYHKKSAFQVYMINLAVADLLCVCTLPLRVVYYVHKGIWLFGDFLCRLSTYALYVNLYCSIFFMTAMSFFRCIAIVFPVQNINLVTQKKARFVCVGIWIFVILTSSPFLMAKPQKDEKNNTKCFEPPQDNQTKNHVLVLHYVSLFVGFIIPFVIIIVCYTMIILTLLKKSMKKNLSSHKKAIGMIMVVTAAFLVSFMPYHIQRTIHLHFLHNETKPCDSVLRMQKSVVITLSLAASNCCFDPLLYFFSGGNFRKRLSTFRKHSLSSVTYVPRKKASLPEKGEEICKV

[25] = biological target: Nicotinic acetylcholine receptor alpha-1/beta-1 (Homo sapiens) (UniProt P02708+P11230); test: Activity against NACH_BS_N/H in the Eurofins SafetyScreen44 (BI) by Radioactive Assay; assay type: protein-complex assay; settings: Compound concentration 10.0 uM
[26] = biological target: Muscarinic acetylcholine receptor M3 (Homo sapiens) (UniProt P20309); test: Activity against M3/HU in the Eurofins SafetyScreen44 (BI) by Radioactive Assay; settings: Compound concentration 10.0 uM
Sequence of Muscarinic acetylcholine receptor M3 (Homo sapiens) (P20309 whole entry, looked up): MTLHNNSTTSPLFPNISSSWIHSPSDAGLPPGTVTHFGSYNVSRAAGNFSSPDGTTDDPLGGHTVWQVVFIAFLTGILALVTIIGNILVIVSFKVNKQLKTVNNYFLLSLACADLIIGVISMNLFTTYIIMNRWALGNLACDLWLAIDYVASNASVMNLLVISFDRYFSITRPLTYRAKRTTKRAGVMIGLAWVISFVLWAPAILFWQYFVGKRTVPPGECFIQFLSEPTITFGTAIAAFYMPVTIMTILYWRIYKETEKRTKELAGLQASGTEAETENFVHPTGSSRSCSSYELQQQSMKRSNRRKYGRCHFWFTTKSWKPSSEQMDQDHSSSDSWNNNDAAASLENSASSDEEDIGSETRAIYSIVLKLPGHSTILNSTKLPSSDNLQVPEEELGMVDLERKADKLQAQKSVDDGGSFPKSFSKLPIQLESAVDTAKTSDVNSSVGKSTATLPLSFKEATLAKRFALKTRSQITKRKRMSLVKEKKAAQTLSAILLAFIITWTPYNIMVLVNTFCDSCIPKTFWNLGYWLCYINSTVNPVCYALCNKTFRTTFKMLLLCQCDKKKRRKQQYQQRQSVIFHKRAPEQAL

[27] = biological target: Epidermal growth factor receptor (Homo sapiens) (UniProt P00533); test: Activity against EGF/HU in the Eurofins SafetyScreen44 (BI) by Radioactive Assay; settings: Compound concentration 10.0 uM

COc1cc(C)c(S(=O)(=O)N(C)CCOCC(=O)N(C)[C@H]2CCC[C@@H](N3CCN(C)CC3)C2)c(C)c1
residual activity [1]: 22%
residual activity [2]: 96%
residual activity [3]: 100%
residual activity [4]: 101%
Ki (B1 bradykinin receptor [5]): 15.3 nM (active)
residual activity (Rattus norvegicus): 94%
activity at 10 µM (hERG (KCNH2)): 70% (not active)
residual activity [6]: 84%
residual activity [7]: 105%
residual activity [8]: 111%
Ki (B1 bradykinin receptor [9]): 13.3 nM (active)
residual activity [10]: 30%
residual activity [11]: 103%
Ki (B1 bradykinin receptor [12]): 5.3 nM (active)
residual activity [13]: 105%
residual activity [14]: 85%
residual activity [15]: 87%
residual activity [16]: 108%
residual activity [17]: 118%
residual activity [18]: 88%
residual activity [19]: 104%
residual activity [20]: 101%
residual activity [21]: 102%
residual activity [22]: 96%
residual activity [23]: 93%
residual activity [24]: 95%
residual activity [25]: 96%
residual activity [26]: 84%
residual activity [27]: 125%
